Data reported in patent US20030181426A1, “Compositions and methods for treating pain using cyclooxygenase-1 inhibitors” (priority 2002, published 2003).

Tests used:
acute noxious heat = assay: Heat pain testing with Peltier-controlled thermode in volunteers; format: in vivo, humans; conditions: for Pain threshold temperatures: in °C (unit assumed)
PGE2 [1] = assay: CSF PGE2 concentrations in conscious dogs after i.t. ketorolac; format: in vivo; conditions: within 30 min of injection
PGE2 [2] = assay: PGE2 concentration in cerebrospinal fluid of volunteers; format: in vivo, humans; conditions: for Pre-injection PGE2: CSF before injection; for Post-injection PGE2: CSF 60 min after injection

Compound: O=C(c1ccccc1)c1ccc2n1CCC2C(=O)O (centres unmarked) [ketorolac]
- temperature pain threshold (acute noxious heat; 0.5 mg i.t.): did not affect
- analgesic effect to acute noxious heat (pain magnitude report) (acute noxious heat; 0.5 mg i.t., moderate and severe pain intensities, FIG. 3): apparent effect
- Pain threshold temperatures (acute noxious heat; Arm, 0.25 mg i.t., 0.25 h): 45 ± 1.0
- Pain threshold temperatures (acute noxious heat; Arm, 0.25 mg i.t., 0.5 h): 44 ± 1.5
- Pain threshold temperatures (acute noxious heat; Arm, 0.25 mg i.t., 1 h): 45 ± 1.3
- Pain threshold temperatures (acute noxious heat; Arm, 0.25 mg i.t., 2 h): 44 ± 1.7
- Pain threshold temperatures (acute noxious heat; Arm, 0.25 mg i.t., 3 h): 45 ± 1.1
- Pain threshold temperatures (acute noxious heat; Arm, 0.25 mg i.t., 4 h): 44 ± 2.2
- Pain threshold temperatures (acute noxious heat; Arm, 0.25 mg i.t., 24 h): 46 ± 0.5
- Pain threshold temperatures (acute noxious heat; Arm, 0.25 mg i.t., time 0 h (injection at time 0)): 45 ± 1.1
- Pain threshold temperatures (acute noxious heat; Arm, 0.50 mg i.t., 0.25 h): 44 ± 1.9
- Pain threshold temperatures (acute noxious heat; Arm, 0.50 mg i.t., 0.5 h): 43 ± 1.2
- Pain threshold temperatures (acute noxious heat; Arm, 0.50 mg i.t., 1 h): 44 ± 1.7
- Pain threshold temperatures (acute noxious heat; Arm, 0.50 mg i.t., 2 h): 45 ± 1.9
- Pain threshold temperatures (acute noxious heat; Arm, 0.50 mg i.t., 3 h): 46 ± 1.7
- Pain threshold temperatures (acute noxious heat; Arm, 0.50 mg i.t., 4 h): 46 ± 1.7
- Pain threshold temperatures (acute noxious heat; Arm, 0.50 mg i.t., 24 h): 44 ± 1.7
- Pain threshold temperatures (acute noxious heat; Arm, 0.50 mg i.t., time 0 h (injection at time 0)): 45 ± 1.9
- Pain threshold temperatures (acute noxious heat; Arm, 1.0 mg i.t., 0.25 h): 41 ± 1.3
- Pain threshold temperatures (acute noxious heat; Arm, 1.0 mg i.t., 0.5 h): 40 ± 0.5
- Pain threshold temperatures (acute noxious heat; Arm, 1.0 mg i.t., 1 h): 39 ± 0.7
- Pain threshold temperatures (acute noxious heat; Arm, 1.0 mg i.t., 2 h): 41 ± 1.2
- Pain threshold temperatures (acute noxious heat; Arm, 1.0 mg i.t., 3 h): 42 ± 0.9
- Pain threshold temperatures (acute noxious heat; Arm, 1.0 mg i.t., 4 h): 42 ± 1.5
- Pain threshold temperatures (acute noxious heat; Arm, 1.0 mg i.t., 24 h): 41 ± 1.6
- Pain threshold temperatures (acute noxious heat; Arm, 1.0 mg i.t., time 0 h (injection at time 0)): 40 ± 0.5
- Pain threshold temperatures (acute noxious heat; Arm, 2.0 mg i.t., 0.25 h): 44 ± 1.9
- Pain threshold temperatures (acute noxious heat; Arm, 2.0 mg i.t., 0.5 h): 43 ± 1.4
- Pain threshold temperatures (acute noxious heat; Arm, 2.0 mg i.t., 1 h): 40 ± 2.1
- Pain threshold temperatures (acute noxious heat; Arm, 2.0 mg i.t., 2 h): 43 ± 1.8
- Pain threshold temperatures (acute noxious heat; Arm, 2.0 mg i.t., 3 h): 43 ± 1.6
- Pain threshold temperatures (acute noxious heat; Arm, 2.0 mg i.t., 4 h): 43 ± 1.9
- Pain threshold temperatures (acute noxious heat; Arm, 2.0 mg i.t., 24 h): 45 ± 2.3
- Pain threshold temperatures (acute noxious heat; Arm, 2.0 mg i.t., time 0 h (injection at time 0)): 44 ± 1.3
- Pain threshold temperatures (acute noxious heat; Leg, 0.25 mg i.t., 0.25 h): 45 ± 1.1
- Pain threshold temperatures (acute noxious heat; Leg, 0.25 mg i.t., 0.5 h): 46 ± 1.1
- Pain threshold temperatures (acute noxious heat; Leg, 0.25 mg i.t., 1 h): 47 ± 0.7
- Pain threshold temperatures (acute noxious heat; Leg, 0.25 mg i.t., 2 h): 46 ± 1.5
- Pain threshold temperatures (acute noxious heat; Leg, 0.25 mg i.t., 3 h): 45 ± 1.1
- Pain threshold temperatures (acute noxious heat; Leg, 0.25 mg i.t., 4 h): 46 ± 0.9
- Pain threshold temperatures (acute noxious heat; Leg, 0.25 mg i.t., 24 h): 45 ± 1.1
- Pain threshold temperatures (acute noxious heat; Leg, 0.25 mg i.t., time 0 h (injection at time 0)): 45 ± 1.3
- Pain threshold temperatures (acute noxious heat; Leg, 0.50 mg i.t., 0.25 h): 46 ± 2.4
- Pain threshold temperatures (acute noxious heat; Leg, 0.50 mg i.t., 0.5 h): 48 ± 2.2
- Pain threshold temperatures (acute noxious heat; Leg, 0.50 mg i.t., 1 h): 46 ± 1.7
- Pain threshold temperatures (acute noxious heat; Leg, 0.50 mg i.t., 2 h): 46 ± 2.5
- Pain threshold temperatures (acute noxious heat; Leg, 0.50 mg i.t., 3 h): 46 ± 1.7
- Pain threshold temperatures (acute noxious heat; Leg, 0.50 mg i.t., 4 h): 46 ± 2.4
- Pain threshold temperatures (acute noxious heat; Leg, 0.50 mg i.t., 24 h): 45 ± 2.0
- Pain threshold temperatures (acute noxious heat; Leg, 0.50 mg i.t., time 0 h (injection at time 0)): 45 ± 1.4
- Pain threshold temperatures (acute noxious heat; Leg, 1.0 mg i.t., 0.25 h): 42 ± 1.7
- Pain threshold temperatures (acute noxious heat; Leg, 1.0 mg i.t., 0.5 h): 42 ± 0.5
- Pain threshold temperatures (acute noxious heat; Leg, 1.0 mg i.t., 1 h): 44 ± 0.5
- Pain threshold temperatures (acute noxious heat; Leg, 1.0 mg i.t., 2 h): 42 ± 1.5
- Pain threshold temperatures (acute noxious heat; Leg, 1.0 mg i.t., 3 h): 43 ± 1.0
- Pain threshold temperatures (acute noxious heat; Leg, 1.0 mg i.t., 4 h): 43 ± 1.1
- Pain threshold temperatures (acute noxious heat; Leg, 1.0 mg i.t., 24 h): 42 ± 0.9
- Pain threshold temperatures (acute noxious heat; Leg, 1.0 mg i.t., time 0 h (injection at time 0)): 41 ± 1.3
- Pain threshold temperatures (acute noxious heat; Leg, 2.0 mg i.t., 0.25 h): 45 ± 1.4
- Pain threshold temperatures (acute noxious heat; Leg, 2.0 mg i.t., 0.5 h): 43 ± 1.3
- Pain threshold temperatures (acute noxious heat; Leg, 2.0 mg i.t., 1 h): 44 ± 2.1
- Pain threshold temperatures (acute noxious heat; Leg, 2.0 mg i.t., 2 h): 44 ± 2.3
- Pain threshold temperatures (acute noxious heat; Leg, 2.0 mg i.t., 3 h): 43 ± 1.6
- Pain threshold temperatures (acute noxious heat; Leg, 2.0 mg i.t., 4 h): 44 ± 1.8
- Pain threshold temperatures (acute noxious heat; Leg, 2.0 mg i.t., 24 h): 45 ± 2.2
- Pain threshold temperatures (acute noxious heat; Leg, 2.0 mg i.t., time 0 h (injection at time 0)): 45 ± 1.6
- response to suprathreshold stimuli (acute noxious heat; any dose (0.25-2 mg i.t.)): no effect
- threshold to heat pain in either the arm or the leg (acute noxious heat; i.t. 0.25-2 mg): unaffected
- analgesia to acute noxious heat (acute noxious heat; i.t., doses up to 1.0 mg): several hours of analgesia
- reduction of CSF PGE2 concentrations (PGE2 [1]): > 90%
- spinal neurotoxicity (i.t., rats): no evidence for spinal neurotoxicity
- systemic toxicity at large doses (rat, in vivo): gastrointestinal ulceration and bleeding
- Pre-injection PGE2 (PGE2 [2]; 0.25 mg dose group): 4.7 ± 0.7 pg/mL
- Post-injection PGE2 (PGE2 [2]; 0.25 mg i.t.): 6.0 ± 0.9 pg/mL
- Pre-injection PGE2 (PGE2 [2]; 0.50 mg dose group): 5.6 ± 1.9 pg/mL
- Post-injection PGE2 (PGE2 [2]; 0.50 mg i.t.): 3.8 ± 0.6 pg/mL
- Pre-injection PGE2 (PGE2 [2]; 1.0 mg dose group): 4.1 ± 0.9 pg/mL
- Post-injection PGE2 (PGE2 [2]; 1.0 mg i.t.): 8.5 ± 1.7 pg/mL
- Pre-injection PGE2 (PGE2 [2]; 2.0 mg dose group): 4.9 ± 0.7 pg/mL
- Post-injection PGE2 (PGE2 [2]; 2.0 mg i.t.): 7.5 ± 1.7 pg/mL
- CSF PGE2 concentration 60 min after ketorolac injection (PGE2 [2]; entire study population): 6.1 ± 0.6 pg/mL
- CSF PGE2 concentration prior to ketorolac injection (PGE2 [2]; entire study population): 4.9 ± 0.5 pg/mL
- effect on CSF PGE2 concentrations (PGE2 [2]; entire study population, 60 min after injection): not affected
